From publication PMC7614683, “A small molecule PI3Kα activator for cardioprotection and neuroregeneration” (Nature, 2023)
“And” between values parts separate entries of the source, which are not always exact repeats. Identical values can stand only once. Like-named read-outs stand apart in the source and are kept apart here.

How the values were obtained:
CDK9/cyclin T1 = CDK9/cyclin T1 (Homo sapiens, UniProt P50750); test: SelectScreen Adapta; assay type: biochemical
Protocol: (§1) 133 protein kinases and 7 lipid kinases were counterscreened, with 1938 used at 1 μM, using the Adapta, Lantha and Z-LYTE assays (SelectScreen Kinase Profiling Service; Thermofisher – experimental details of these assays can be found here: https://www.thermofisher.com/uk/en/home/industrial/pharma-biopharma/drug-discovery-development/target-and-lead-identification-and-validation/kinasebiology/kinase-activity-assays.html. The tree represention in KinMap[59] generated courtesy of Cell Signaling Technology, Inc. (www.cellsignal.com). mTORC1 (mTOR/RAPTOR/LST8) protein complex and ATM kinase and substrates were produced as previously described[57],[60]. Screening of 1938 was conducted using SuperSep Phos-Tag 50 μmol/l 100 x 100 x 6.6 mm 17-well (192-18001/199-18011) gels. For ATM assays, 100 nM ATM was incubated for 30 min at 30°C with 5 μM GST-p53 and 1 mM ATP, in the absence or presence of 200 μM 1938 in ATM Kinase Buffer (50 mM HEPES pH 7.5, 100 mM NaCl, 10% glycerol, 2 mM […], 5 mM MgCl2). As a positive control for ATM activation, the same reaction was carried out with 100 nM ATM/5 μM GST-p53/1 mM ATP in the presence of 100 nM Mre11-Rad50-Nbs1 (MRN) complex, a known activator of ATM[61]. For mTORC1 assays, 50 nM mTORC1 complex (mTOR/LST8/RAPTOR) was incubated for 3 h at 30°C with 15 μM 4E-BP1, 10 mM MgCl2 and 250 μM ATP, in the absence or presence of 200 μM 1938. As a ‘positive’ control, a higher concentration (150 nM) of mTORC1 complex (mTOR/LST8/RAPTOR) was incubated for 3 h at 30°C with 15 μM 4E-BP1, 10 mM MgCl2 and 250 μM ATP. Kinase reactions were quenched by addition of SDS-PAGE Loading Buffer (as per manufacturer’s instructions) and freezing at -20°C before being run on the Phos-tag gels at 150 V for 90 min. Gels were then stained using InstantBlue™ Coomassie, and quantified using BioRad Image Lab Software. Kinase assays were carried out in triplicate.

LRRK2 = LRRK2 (Homo sapiens, UniProt Q5S007); test: SelectScreen Adapta; assay type: biochemical
Protocol: as §1

[1] = target: PIK3CD/PIK3R1 (p110 delta/p85 alpha) (Homo sapiens, UniProt O00329); test: SelectScreen Adapta; assay type: biochemical
PIK3CD/PIK3R1 (p110 delta/p85 alpha), sequence (O00329 whole entry): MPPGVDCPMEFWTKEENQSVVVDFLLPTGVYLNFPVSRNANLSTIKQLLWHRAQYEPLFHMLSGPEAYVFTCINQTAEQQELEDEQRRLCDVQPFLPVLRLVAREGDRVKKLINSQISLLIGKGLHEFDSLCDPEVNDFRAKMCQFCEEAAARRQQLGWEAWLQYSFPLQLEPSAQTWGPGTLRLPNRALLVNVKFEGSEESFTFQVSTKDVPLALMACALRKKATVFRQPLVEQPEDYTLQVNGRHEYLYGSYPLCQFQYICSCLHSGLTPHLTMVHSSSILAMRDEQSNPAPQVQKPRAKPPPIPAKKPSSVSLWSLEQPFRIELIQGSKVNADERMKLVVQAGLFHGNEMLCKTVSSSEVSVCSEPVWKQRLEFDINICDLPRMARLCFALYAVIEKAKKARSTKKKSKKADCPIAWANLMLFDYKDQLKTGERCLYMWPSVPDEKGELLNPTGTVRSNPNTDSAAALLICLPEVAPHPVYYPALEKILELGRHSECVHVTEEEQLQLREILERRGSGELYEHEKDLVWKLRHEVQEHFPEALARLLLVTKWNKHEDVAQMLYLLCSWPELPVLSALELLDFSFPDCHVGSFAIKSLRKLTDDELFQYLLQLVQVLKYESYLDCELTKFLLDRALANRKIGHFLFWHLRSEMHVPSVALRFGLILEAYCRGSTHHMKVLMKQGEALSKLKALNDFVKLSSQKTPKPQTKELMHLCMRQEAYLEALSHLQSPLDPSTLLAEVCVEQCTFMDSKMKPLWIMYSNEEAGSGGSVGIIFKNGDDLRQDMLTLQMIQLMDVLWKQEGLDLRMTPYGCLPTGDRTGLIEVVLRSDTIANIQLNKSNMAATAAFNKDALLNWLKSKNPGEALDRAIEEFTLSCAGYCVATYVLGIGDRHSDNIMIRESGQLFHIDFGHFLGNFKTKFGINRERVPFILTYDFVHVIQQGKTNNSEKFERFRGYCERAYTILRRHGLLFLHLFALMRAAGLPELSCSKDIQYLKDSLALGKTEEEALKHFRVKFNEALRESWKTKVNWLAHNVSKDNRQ
PIK3CD/PIK3R1 (p110 delta/p85 alpha), sequence (P27986 whole entry partner): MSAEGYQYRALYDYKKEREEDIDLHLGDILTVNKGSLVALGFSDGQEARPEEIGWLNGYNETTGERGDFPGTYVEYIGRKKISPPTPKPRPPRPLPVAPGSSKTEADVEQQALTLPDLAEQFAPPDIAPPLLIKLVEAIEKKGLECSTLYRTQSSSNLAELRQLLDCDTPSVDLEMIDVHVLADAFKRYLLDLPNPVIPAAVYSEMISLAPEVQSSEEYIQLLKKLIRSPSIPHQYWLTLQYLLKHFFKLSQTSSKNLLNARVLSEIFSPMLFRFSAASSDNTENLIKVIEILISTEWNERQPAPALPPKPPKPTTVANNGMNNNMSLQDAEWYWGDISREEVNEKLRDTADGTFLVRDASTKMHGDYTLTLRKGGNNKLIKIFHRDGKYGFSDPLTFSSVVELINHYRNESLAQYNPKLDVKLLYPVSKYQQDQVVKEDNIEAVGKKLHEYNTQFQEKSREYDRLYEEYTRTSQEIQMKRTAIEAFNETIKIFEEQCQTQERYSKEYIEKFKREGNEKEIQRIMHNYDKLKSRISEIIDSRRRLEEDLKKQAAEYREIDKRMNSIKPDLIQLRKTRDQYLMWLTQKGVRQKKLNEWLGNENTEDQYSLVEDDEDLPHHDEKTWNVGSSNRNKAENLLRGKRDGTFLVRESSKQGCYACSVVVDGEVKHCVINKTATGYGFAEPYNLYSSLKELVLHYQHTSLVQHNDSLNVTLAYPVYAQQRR
Protocol: as §1

isolated rat hearts = test: Langendorff ex vivo perfused rat heart model of ischaemia reperfusion injury; details: 1938 5 μM or insulin 1 μM; Fig 5d, single hearts
Protocol: The Langendorff ex vivo perfused rat heart was used as an experimental model of IRI[79]. The animal experiments were conducted within the terms of the UK Animals (Scientific Procedures) Act 1986, under Project Licence number PPL 70/8556 (Protection of the Ischaemic and Reperfused Myocardium). All procedures conform to the guidelines from Directive 2010/63/EU of the European Parliament on the protection of animals used for scientific purposes. Male Sprague–Dawley rats were bred at a central animal unit in University College London and used at a weight of 250–350 g, and randomly assigned to experimental groups. Rats were anaesthetised by intraperitoneal injection of sodium pentobarbitone (60 mg/kg) (Animalcare, York, UK). […] Analysis of infarct size (IS) as a proportion of area at risk (AAR) was calculated via planimetry using imageJ software (version 1.45, National Institutes of Health, USA).
Alternatively, after 15 min reperfusion, perfusion was stopped and hearts were freeze-clamped in liquid nitrogen and frozen at -80°C. […] Protein content was determined by bicinchoninic acid (BCA) assay (Sigma-Aldrich, Gillingham, UK). […] The next day, membranes were probed with IRDye fluorescence-tagged secondary antibodies (#926-32211 and #926-68020; LI-COR Biosciences, Ltd. UK) and imaged and quantified using the Odyssey imaging system (Image Studio Lite Ver 5.2; LI-COR Biosciences, Cambridge, UK).

CDK9/cyclin T1, sequence (P50750 whole entry): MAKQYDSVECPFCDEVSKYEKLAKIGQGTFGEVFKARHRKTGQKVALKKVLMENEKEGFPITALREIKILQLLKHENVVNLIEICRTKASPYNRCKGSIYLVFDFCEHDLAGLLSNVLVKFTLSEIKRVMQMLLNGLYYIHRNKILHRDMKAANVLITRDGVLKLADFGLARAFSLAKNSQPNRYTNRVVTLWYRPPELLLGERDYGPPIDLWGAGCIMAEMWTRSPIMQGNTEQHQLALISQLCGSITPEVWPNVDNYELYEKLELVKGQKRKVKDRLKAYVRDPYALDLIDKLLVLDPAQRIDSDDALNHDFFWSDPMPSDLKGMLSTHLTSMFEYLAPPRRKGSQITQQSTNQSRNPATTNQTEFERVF
CDK9/cyclin T1, sequence (O60563 whole entry partner): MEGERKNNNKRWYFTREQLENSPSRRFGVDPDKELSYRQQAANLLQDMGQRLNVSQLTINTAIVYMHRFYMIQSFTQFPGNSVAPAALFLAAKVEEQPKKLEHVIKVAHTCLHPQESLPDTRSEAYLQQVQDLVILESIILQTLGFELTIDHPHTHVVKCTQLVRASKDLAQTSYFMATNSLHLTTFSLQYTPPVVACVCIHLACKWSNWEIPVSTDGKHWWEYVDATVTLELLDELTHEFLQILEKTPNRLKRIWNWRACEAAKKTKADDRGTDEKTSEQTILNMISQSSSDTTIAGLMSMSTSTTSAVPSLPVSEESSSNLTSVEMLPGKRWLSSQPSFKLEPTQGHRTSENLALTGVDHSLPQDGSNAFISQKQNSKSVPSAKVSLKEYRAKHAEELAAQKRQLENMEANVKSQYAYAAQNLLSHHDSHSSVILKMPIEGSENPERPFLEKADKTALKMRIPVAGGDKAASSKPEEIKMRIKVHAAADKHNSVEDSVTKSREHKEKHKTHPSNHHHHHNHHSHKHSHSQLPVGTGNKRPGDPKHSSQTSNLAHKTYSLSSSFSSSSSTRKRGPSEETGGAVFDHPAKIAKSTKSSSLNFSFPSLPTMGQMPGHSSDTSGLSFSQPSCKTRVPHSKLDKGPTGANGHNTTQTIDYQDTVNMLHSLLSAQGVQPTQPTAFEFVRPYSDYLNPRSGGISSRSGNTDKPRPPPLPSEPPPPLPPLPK

Molecule	inhibition at 1 µM (CDK9/cyclin T1; read-out: % Inhibition Point 1)	inhibition at 1 µM (CDK9/cyclin T1; read-out: % Inhibition Point 2)	inhibition at 1 µM (CDK9/cyclin T1; read-out: % Inhibition mean)	inhibition at 1 µM (LRRK2; read-out: % Inhibition Point 1)	inhibition at 1 µM (LRRK2; read-out: % Inhibition Point 2)	inhibition at 1 µM (LRRK2; read-out: % Inhibition mean)	inhibition at 1 µM ([1]; read-out: % Inhibition Point 1)	inhibition at 1 µM ([1]; read-out: % Inhibition Point 2)	inhibition at 1 µM ([1]; read-out: % Inhibition mean)	Western blot pAkt in langendorff (isolated rat hearts)
CCN1CCN(c2ccc(Nc3cc(Nc4cccc5c4N(C(C)=O)CC5)ccn3)cc2)CC1 [Compound 1938]	10%	2%	6%	13%	18%	16%	11%	-5%	2.81%	
insulin: insulin, canonical activator of PI3Kα, used as positive control										3.259 and 3.657
